Assay results: PubChem BioAssay AID2060898 (Molecular Pharmacology Branch, DTP, NCI, 2025)

Tested on: 616215-338-R-J1-PDC complex spheroid viability
Experiment: Anticancer human tumor 616215-338-R-J1-PDC patient-derived colon adenocarcinoma cell line growth inhibition [RAS]
Details: for IC50: curve of first compound; for viability, T/C: stronger effect = lower value; active = viability on the fitted dose curve at most 10% of control; inactive = the rest
In short: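 Multi-cell-type spheroids: tumor cells plus HUVEC endothelial cells and mesenchymal stem cells. RAS-pathway inhibitors were combined with targeted agents, each dosed in half-log steps down from clinical Cmax, or from 10 microM when Cmax was unknown.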
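Note: spheroids exposed to agents for seven days before viability readout.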
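Throughout, for viability, T/C: 100% = DMSO vehicle control viability.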

CCc1c2c(nc3ccc(O)cc13)-c1cc3c(c(=O)n1C2)COC(=O)[C@]3(O)CC + CCn1c(-c2cc(N3CCN(C)CC3)cnc2C(C)OC)c2c3cc(ccc31)-c1csc(n1)CC(NC(=O)C1CC1C)C(=O)N1CCCC(N1)C(=O)OCC(C)(C)C2
< 0.949 nM: IC50 (second compound 0.03 µM) | IC50 (second compound 0.0949 µM) | IC50 (second compound 0.3 µM)
3.33 nM: IC50 (second compound 0.00949 µM)
12.4 nM: IC50 (second compound 0.000949 µM)
inactive: viability, T/C (second compound 0.000949 µM, first compound 0.000949 µM) 109% | viability, T/C (second compound 0.000949 µM, first compound 0.003 µM) 104% | viability, T/C (second compound 0.000949 µM, first compound 0.00949 µM) 51.5% | viability, T/C (second compound 0.000949 µM, first compound 0.03 µM) 35.6% | viability, T/C (second compound 0.000949 µM, first compound 0.0949 µM) 21.2% | viability, T/C (second compound 0.000949 µM, first compound 0.3 µM) 13.4% | viability, T/C (second compound 0.003 µM, first compound 0.000949 µM) 109% | viability, T/C (second compound 0.003 µM, first compound 0.003 µM) 94.8% | viability, T/C (second compound 0.003 µM, first compound 0.00949 µM) 29.1% | viability, T/C (second compound 0.003 µM, first compound 0.03 µM) 23.5% | viability, T/C (second compound 0.003 µM, first compound 0.0949 µM) 21.3% | viability, T/C (second compound 0.003 µM, first compound 0.3 µM) 12.1% | viability, T/C (second compound 0.00949 µM, first compound 0.000949 µM) 87.6% | viability, T/C (second compound 0.00949 µM, first compound 0.003 µM) 52.9% | viability, T/C (second compound 0.00949 µM, first compound 0.00949 µM) 21% | viability, T/C (second compound 0.00949 µM, first compound 0.03 µM) 22.7% | viability, T/C (second compound 0.00949 µM, first compound 0.0949 µM) 18.4% | viability, T/C (second compound 0.00949 µM, first compound 0.3 µM) 12.2% | viability, T/C (second compound 0.03 µM, first compound 0.000949 µM) 45.2% | viability, T/C (second compound 0.03 µM, first compound 0.003 µM) 29.1% | viability, T/C (second compound 0.03 µM, first compound 0.00949 µM) 23.2% | viability, T/C (second compound 0.03 µM, first compound 0.03 µM) 19.6% | viability, T/C (second compound 0.03 µM, first compound 0.0949 µM) 15.2% | viability, T/C (second compound 0.03 µM, first compound 0.3 µM) 8.75% | viability, T/C (second compound 0.0949 µM, first compound 0.000949 µM) 36.2% | viability, T/C (second compound 0.0949 µM, first compound 0.003 µM) 28.7% | viability, T/C (second compound 0.0949 µM, first compound 0.00949 µM) 18.1% | viability, T/C (second compound 0.0949 µM, first compound 0.03 µM) 17.6% | viability, T/C (second compound 0.0949 µM, first compound 0.0949 µM) 14.6% | viability, T/C (second compound 0.0949 µM, first compound 0.3 µM) 9.71% | viability, T/C (second compound 0.3 µM, first compound 0.000949 µM) 35.1% | viability, T/C (second compound 0.3 µM, first compound 0.003 µM) 29.8% | viability, T/C (second compound 0.3 µM, first compound 0.00949 µM) 24% | viability, T/C (second compound 0.3 µM, first compound 0.03 µM) 23.1% | viability, T/C (second compound 0.3 µM, first compound 0.0949 µM) 17.5% | viability, T/C (second compound 0.3 µM, first compound 0.3 µM) 10.5%
6.6 nM: IC50 (second compound 0.003 µM)

C=CC(=O)Nc1cc(Nc2nccc(-c3cn(C)c4ccccc34)n2)c(OC)cc1N(C)CCN(C)C + CCn1c(-c2cccnc2C(C)OC)c2c3cc(ccc31)N1CCOC(CC(NC(=O)C(C(C)C)N(C)C(=O)C3(F)CCN(C(=O)C#CC(C)(C)N(C)C)CC3)C(=O)N3CCCC(N3)C(=O)OCC(C)(C)C2)C1
inactive: viability, T/C (second compound 0.000949 µM, first compound 0.00316 µM) 98.4% | viability, T/C (second compound 0.000949 µM, first compound 0.01 µM) 105% | viability, T/C (second compound 0.000949 µM, first compound 0.0316 µM) 116% | viability, T/C (second compound 0.000949 µM, first compound 0.1 µM) 103% | viability, T/C (second compound 0.000949 µM, first compound 0.316 µM) 102% | viability, T/C (second compound 0.000949 µM, first compound 1 µM) 68.2% | viability, T/C (second compound 0.003 µM, first compound 0.00316 µM) 103% | viability, T/C (second compound 0.003 µM, first compound 0.01 µM) 106% | viability, T/C (second compound 0.003 µM, first compound 0.0316 µM) 99.8% | viability, T/C (second compound 0.003 µM, first compound 0.1 µM) 112% | viability, T/C (second compound 0.003 µM, first compound 0.316 µM) 110% | viability, T/C (second compound 0.003 µM, first compound 1 µM) 66.2% | viability, T/C (second compound 0.00949 µM, first compound 0.00316 µM) 100% | viability, T/C (second compound 0.00949 µM, first compound 0.01 µM) 99.6% | viability, T/C (second compound 0.00949 µM, first compound 0.0316 µM) 108% | viability, T/C (second compound 0.00949 µM, first compound 0.1 µM) 110% | viability, T/C (second compound 0.00949 µM, first compound 0.316 µM) 107% | viability, T/C (second compound 0.00949 µM, first compound 1 µM) 80% | viability, T/C (second compound 0.03 µM, first compound 0.00316 µM) 109% | viability, T/C (second compound 0.03 µM, first compound 0.01 µM) 105% | viability, T/C (second compound 0.03 µM, first compound 0.0316 µM) 100% | viability, T/C (second compound 0.03 µM, first compound 0.1 µM) 110% | viability, T/C (second compound 0.03 µM, first compound 0.316 µM) 104% | viability, T/C (second compound 0.03 µM, first compound 1 µM) 62.7% | viability, T/C (second compound 0.0949 µM, first compound 0.00316 µM) 105% | viability, T/C (second compound 0.0949 µM, first compound 0.01 µM) 110% | viability, T/C (second compound 0.0949 µM, first compound 0.0316 µM) 111% | viability, T/C (second compound 0.0949 µM, first compound 0.1 µM) 112% | viability, T/C (second compound 0.0949 µM, first compound 0.316 µM) 103% | viability, T/C (second compound 0.0949 µM, first compound 1 µM) 66.9% | viability, T/C (second compound 0.3 µM, first compound 0.00316 µM) 97.1% | viability, T/C (second compound 0.3 µM, first compound 0.01 µM) 104% | viability, T/C (second compound 0.3 µM, first compound 0.0316 µM) 95.9% | viability, T/C (second compound 0.3 µM, first compound 0.1 µM) 89.9% | viability, T/C (second compound 0.3 µM, first compound 0.316 µM) 97.2% | viability, T/C (second compound 0.3 µM, first compound 1 µM) 59%
> 1000 nM: IC50 (second compound 0.000949 µM) | IC50 (second compound 0.003 µM) | IC50 (second compound 0.00949 µM) | IC50 (second compound 0.03 µM) | IC50 (second compound 0.0949 µM) | IC50 (second compound 0.3 µM)
